According to publication PMC6429507, “Triterpene-Based Carboxamides Act as Good Inhibitors of Butyrylcholinesterase” (Molecules, 2019):
Where two headings read alike, the source gives them in different places.

What was measured:
[1] = target: acetylcholinesterase (AChE, electric eel) (Electrophorus electricus, UniProt O42275); conditions: for Grade of inhibition in% AChE / Ki' (uncompetitive inhibition) / Ki: mean ± SE; for Type of Inhibition / Ki' (uncompetitive inhibition) / Ki: AChE, electric eel; for Ki: read-out: Ki (competitive inhibition)
Sequence of acetylcholinesterase (AChE, electric eel) (O42275 24-633): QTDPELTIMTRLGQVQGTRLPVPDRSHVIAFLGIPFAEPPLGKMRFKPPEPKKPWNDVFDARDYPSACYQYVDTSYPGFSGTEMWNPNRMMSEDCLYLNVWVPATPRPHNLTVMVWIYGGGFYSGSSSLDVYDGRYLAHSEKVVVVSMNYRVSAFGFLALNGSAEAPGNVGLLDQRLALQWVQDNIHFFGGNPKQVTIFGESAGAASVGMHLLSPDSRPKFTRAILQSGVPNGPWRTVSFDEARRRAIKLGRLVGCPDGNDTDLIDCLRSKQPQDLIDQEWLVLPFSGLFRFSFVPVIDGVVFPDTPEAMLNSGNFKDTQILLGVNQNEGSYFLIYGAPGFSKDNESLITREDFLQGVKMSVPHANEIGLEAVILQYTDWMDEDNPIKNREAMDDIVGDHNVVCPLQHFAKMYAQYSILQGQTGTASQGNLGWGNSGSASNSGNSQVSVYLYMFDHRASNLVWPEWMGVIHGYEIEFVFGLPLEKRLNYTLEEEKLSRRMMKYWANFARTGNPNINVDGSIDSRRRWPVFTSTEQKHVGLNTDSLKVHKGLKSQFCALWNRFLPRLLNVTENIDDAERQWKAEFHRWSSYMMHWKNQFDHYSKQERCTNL
From the text: (§1) In this study, carboxamides with different triterpenoic backbones (ursolic, oleanolic, maslinic, betulinic, and platanic acids), and various amine residues (Scheme 1), were investigated.
(§2) A TECAN SpectraFluorPlus working in the kinetic mode and measuring the absorbance at λ = 415 nm was used for the enzymatic studies. Acetylcholinesterase (from Electrophorus electricus), 5,5′-dithiobis-(2-nitrobenzoic acid) (DTNB) and acetylthiocholine iodide were purchased from Sigma. Butyrylcholinesterase (from equine serum) was purchased from Fluka. Preparation of the solutions, assay procedure, as well as molecular modeling conditions can be found in the Supplementary Materials.
(§3) 3.1 Preparation of the solutions
(§4) Preparation of 50 mM Tris-HCl buffer solutions: Tris(hydroxymethyl)-aminomethane (606 mg) was dissolved in bidestilled water (100 mL) and adjusted with HCl to a pH of 8.0 ± 0.1. Buffers were freshly prepared and stored in the refrigerator. AChE solution 2.005 U/mL: the enzyme (271 U/mg, 0.037 mg) was dissolved in freshly prepared buffer pH 8.0 (5 mL) containing NaN3 (0.98 mg). BChE solution 2.040 U/mL: the enzyme (7.54 U/mg, 1.353 mg) was dissolved in freshly prepared buffer pH 8.0 (5 mL) containing NaN3 (0.98 mg). DTNB solution 3 mM: DTNB (23.8 mg) was dissolved in freshly prepared buffer pH 8.0 (20 mL) containing NaCl (116.8 mg) and MgCl2 (38.0 mg). ATChI solution 15 mM:
(§5) ATChI (43.4 mg) was dissolved in bidestilled water (10 mL). All solutions were stored in Eppendorf caps in the refrigerator or in the freezer, if necessary. The pure compounds were […]
(§6) dissolved in bidistilled water. The final concentrations for the enzymatic assay were obtained by diluting the stock solution with bidistilled water.
(§7) A mixture of the DTNB solution (125 µL), enzyme solution (25 µL) and compounds solutions (25 µL, 3 different concentrations and once blank water) was prepared and incubated at 30 °C for 20 min. The substrate (25 µL, 4 different concentrations) was added to start the enzymatic reaction. The absorbance data (l = 415 nm) was recorded under a controlled temperature of 30 °C for 30 min at 1 min intervals. The substrate concentrations in the test were as follows: […]
(§8) determined as the quotient of the slopes (compound divided by blank) of the linear ranges.
(§9) The used substrate concentration was 0.625 mM. The absorbance data was recorded under a controlled temperature of 30 °C for 10 min.

[2] = target: T1, butyrylcholinesterase (BChE, equine serum) (Equus caballus, UniProt P81908); test: Ellman's assay, butyrylcholinesterase inhibition; type: biochemical; conditions: for Type of Inhibition / Ki′ (uncompetitive inhibition) / Ki: BChE, equine serum; for Ki′ (uncompetitive inhibition) / Ki: Ellman's assay; for Ki: read-out: Ki (competitive inhibition); for Grade of inhibition in% BChE: mean ± SE
T1 construct: Butyrylcholinesterase (from equine serum) was purchased from Fluka; purchased Fluka; host or cells: equine serum
T1 sequence (P81908 whole entry): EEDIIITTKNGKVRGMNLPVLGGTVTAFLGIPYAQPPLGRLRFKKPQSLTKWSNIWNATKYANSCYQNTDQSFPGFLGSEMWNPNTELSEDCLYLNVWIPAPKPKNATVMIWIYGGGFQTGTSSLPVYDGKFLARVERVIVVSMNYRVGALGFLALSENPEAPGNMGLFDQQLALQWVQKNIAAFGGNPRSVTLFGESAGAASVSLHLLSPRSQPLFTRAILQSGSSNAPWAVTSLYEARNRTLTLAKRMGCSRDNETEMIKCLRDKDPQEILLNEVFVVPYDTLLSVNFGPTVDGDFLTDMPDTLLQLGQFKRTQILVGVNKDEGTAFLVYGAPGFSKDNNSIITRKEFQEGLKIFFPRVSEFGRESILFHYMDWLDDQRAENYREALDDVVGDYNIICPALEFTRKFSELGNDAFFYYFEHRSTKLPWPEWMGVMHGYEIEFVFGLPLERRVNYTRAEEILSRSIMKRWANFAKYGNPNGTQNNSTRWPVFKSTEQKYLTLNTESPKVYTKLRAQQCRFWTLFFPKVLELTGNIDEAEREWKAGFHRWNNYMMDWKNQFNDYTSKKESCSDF
From the text: as §1, §2, §3, §4, §5, §6, §7, §8, §9

CC1(C)CCC2(C(=O)NCCN3CCCCC3)CCC3(C)C(=CCC4C5(C)CC(O)C(O)C(C)(C)C5CCC43C)C2C1 (stereo not drawn) [Compound 48, (2α,3β)-N-(2-Piperidin-1-ylethyl)-2,3-dihydroxy-olean-12-en-28-amide]
Grade of inhibition in% AChE ([1]; c = 10 µM): 9.32 ± 0.29%
Type of Inhibition [2]: mixed-type
Ki′ (uncompetitive inhibition) [2]: 6.21 ± 0.47 µM
Ki [2]: 2.26 ± 0.05 µM
Grade of inhibition in% BChE ([2]; c = 10 µM): 69.30 ± 1.12%

CC1(C)CC[C@]2(C(=O)NCCN)CC[C@]3(C)C(=CC[C@@H]4[C@@]5(C)CC[C@H](O)C(C)(C)[C@@H]5CC[C@]43C)[C@@H]2C1 [Compound 17, (3β)-N-(2-Aminoethyl)-3-hydroxy-olean-12-en-28-amide]
Type of Inhibition [1]: mixed-type
Ki' (uncompetitive inhibition) [1]: 18.24 ± 0.06 µM
Grade of inhibition in% AChE ([1]; c = 10 µM): 88.61 ± 0.22%
Ki [1]: 8.53 ± 0.34 µM
Type of Inhibition [2]: mixed-type
Ki′ (uncompetitive inhibition) [2]: 7.68 ± 0.61 µM
Ki [2]: 1.93 ± 0.13 µM
Grade of inhibition in% BChE ([2]; c = 10 µM): 49.10 ± 0.47%

CC(=O)O[C@H]1CC[C@]2(C)[C@H]3CC[C@@H]4[C@H]5[C@H](C(C)=O)CC[C@]5(C(=O)NCCN5CCCCC5)CC[C@@]4(C)[C@]3(C)CC[C@H]2C1(C)C [Compound 45, (3β)-N-(2-Piperidin-1-ylethyl)-3-acetyloxy-20-oxo-30-norlupan-28-amide]
Grade of inhibition in% AChE ([1]; c = 10 µM): no inhibition
Type of Inhibition [2]: mixed-type
Ki′ (uncompetitive inhibition) [2]: 4.88 ± 0.21 µM
Ki [2]: 0.71 ± 0.04 µM
Grade of inhibition in% BChE ([2]; c = 10 µM): 83.44 ± 1.00%

CC(=O)OC1CC2(C)C(CCC3(C)C2CC=C2C4CC(C)(C)CCC4(C(=O)NCCN4CCCC4)CCC23C)C(C)(C)C1OC(C)=O (stereo not drawn) [Compound 33, (2α,3β)-N-(2-Pyrrolidin-1-ylethyl)-2,3-diacetyloxy-olean-12-en-28-amide]
Grade of inhibition in% AChE ([1]; c = 30 µM): 23.47 ± 4.59%
Grade of inhibition in% BChE ([2]; c = 30 µM): 33.01 ± 2.91%

C=C(C)C1CC[C@]2(C(=O)NCCN(C)C)CC[C@]3(C)C(CCC4[C@@]5(C)CC[C@H](O)C(C)(C)C5CC[C@]43C)C12 (stereo partly shown) [Compound 29]
Grade of inhibition in% AChE ([1]; c = 30 µM): 22.12 ± 4.01%
Type of Inhibition [2]: mixed-type
Ki′ (uncompetitive inhibition) [2]: 16.11 ± 0.18 µM
Ki [2]: 3.52 ± 0.07 µM
Grade of inhibition in% BChE ([2]; c = 30 µM): 56.68 ± 0.01%

C=C(C)C1CC[C@]2(C(=O)NCCN(C)C)CC[C@]3(C)C(CCC4[C@@]5(C)CC[C@H](OC(C)=O)C(C)(C)C5CC[C@]43C)C12 (stereo partly shown) [Compound 24]
Grade of inhibition in% AChE ([1]; c = 10 µM): 13.10 ± 1.32%
Type of Inhibition [2]: mixed-type
Grade of inhibition in% BChE ([2]; c = 10 µM): 67.75 ± 0.69%

CC(=O)[C@@H]1CC[C@]2(C(=O)NCCN)CC[C@]3(C)[C@H](CC[C@@H]4[C@@]5(C)CC[C@H](O)C(C)(C)[C@@H]5CC[C@]43C)[C@@H]12 [Compound 20]
Type of Inhibition [1]: mixed-type
Ki' (uncompetitive inhibition) [1]: 9.71 ± 0.03 µM
Grade of inhibition in% AChE ([1]; c = 10 µM): 37.09 ± 0.97%
Ki [1]: 7.18 ± 0.02 µM
Type of Inhibition [2]: mixed-type
Ki′ (uncompetitive inhibition) [2]: > 110 µM
Ki [2]: 8.37 ± 0.67 µM
Grade of inhibition in% BChE ([2]; c = 10 µM): 12.98 ± 0.35%

C[C@@H]1CC[C@]2(C(=O)NCCN3CCCC3)CC[C@]3(C)C(=CCC4[C@@]5(C)CC[C@H](O)C(C)(C)C5CC[C@]43C)C2[C@H]1C (stereo partly shown) [Compound 36]
Grade of inhibition in% AChE ([1]; c = 30 µM): 31.45 ± 0.60%
Type of Inhibition [2]: mixed-type
Ki′ (uncompetitive inhibition) [2]: 2.23 ± 0.12 µM
Ki [2]: 0.47 ± 0.08 µM
Grade of inhibition in% BChE ([2]; c = 30 µM): 85.66 ± 0.10%

C[C@@H]1CC[C@]2(C(=O)NCCN(C)C)CC[C@]3(C)C(=CCC4[C@@]5(C)CC[C@H](O)C(C)(C)C5CC[C@]43C)C2[C@H]1C (stereo partly shown) [Compound 26]
Grade of inhibition in% AChE ([1]; c = 30 µM): 33.53 ± 0.44%
Type of Inhibition [2]: mixed-type
Ki′ (uncompetitive inhibition) [2]: 3.10 ± 0.30 µM
Ki [2]: 1.11 ± 0.09 µM
Grade of inhibition in% BChE ([2]; c = 30 µM): 77.74 ± 0.59%
